The subject of series [1] is Fusarium verticillioides. Description: Antifungal susceptibility testing (MIC, CLSI M38-A2 microdilution). The conditions noted are these: Fusarium verticillioides; for MIC: read-out: MIC. It is filed as cell-based. The method, then:
(§1) page 252: Antifungal susceptibility testing (determination of MIC values) The antifungal susceptibility tests were performed according to the Clinical and Laboratory Standards Institute (CLSI) […]-A2 protocol for mycelial fungi (1). Stock solutions were prepared by dissolving an appropriate amount of testing compounds in DMSO. Solutions of test compounds were added to the wells of a 96-well polystyrene microtiter plate (Colstar, USA) in the concentration range from 0.5 to 0.001 mg/mL. Mycelium growth was monitored photometrically at 490 nm by measuring the optical density of each well. Measurements were carried out two times: immediately after adding all components (RPMI 1640 broth, conidial suspension, test compound solutions) and after incubation plate at 26 °C for 48 h (2). MICs were the lowest testing compound concentrations that produced partial growth inhibition (50% of optical density relative to the control without testing compounds). The tests were performed in triplicate Results : Table S6. The MIC values of Fluxapyroxad , Boscalid , and their saturated analogues against Fusarium oxysporum , and Fusarium verticillioides Antifungal compaunds MIC, mg/mL Fusarium oxysporum Fusarium verticillioides Fluxapyroxad -* 0.250 Analogue (±)- 28 0.125 0.125 […] of 0.063 mg/mL. […]
In general terms: Dilution methods test growth across graded concentrations, often in twofold steps.

In series [2] the test system is Fusarium oxysporum. The description is as above. It is filed as cell-based. The method, then: as §1
Series [3] has as its system human liver microsomes. Description: Metabolic stability in human liver microsomes. It is filed as in vitro ADME. The gist of the method: (§2)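 Compound incubated with human liver microsomes plus NADPH cofactor, in duplicate, with five time points over 40 min; controls replaced NADPH with phosphate buffer. Reactions quenched with methanol containing internal standard and supernatants analysed by LC-MS/MS. Stability derived from log-linear decay, sometimes dropping the last time point.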

A short description of series [4]: Metabolic stability in human liver microsomes. It is filed as in vitro ADME. Particulars: both sexes. The gist of the method:
as §2

The nature of series [5]: physchem. It is filed as physicochemical. Particulars: for D (partition ratio), incubation 1 / D (partition ratio), incubation 2 / D (partition ratio), incubation 3: Table S2, n-octanol/PBS pH 7.4.
Series [6] is described as follows: Kinetic solubility in phosphate-buffered saline, pH 7.4. The conditions noted are these: 25 °C, pH 7.4, aqueous buffer, kinetic from dmso stock. It is filed as physicochemical. The gist of the method:
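DMSO stock (20 mM) diluted in duplicate to a theoretical 400 μM in PBS pH 7.4, shaken 2 h, then vacuum-filtered. Filtrate diluted 2-fold in acetonitrile with 2% DMSO and quantified by UV-Vis absorbance (200-550 nm) against calibration curves in acetonitrile/PBS 1:1. Effective range approximately 2-400 μM.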

The mark [7] stands for this setting: 48 h, Table S6, lowest concentration giving 50% of optical density relative to control, 26 °C, 48 h.
Setting [8] is: human, microsomes, pH 7.4, % Remaining, Mean of 2.
Where [9] appears, read: pH 7.4, LogD, pH 7.4, incubation 1.
Where [10] appears, read: pH 7.4, LogD, pH 7.4, incubation 2.
Setting [11] is: pH 7.4, LogD, pH 7.4, incubation 3.
The mark [12] stands for this setting: human, liver microsomes, pH 7.4, human liver microsomes, 2 μM, 37 °C, with NADPH, 7 min.
[13] abbreviates: human, liver microsomes, pH 7.4, human liver microsomes, 2 μM, 37 °C, with NADPH, 15 min.
Where [14] appears, read: human, liver microsomes, pH 7.4, human liver microsomes, 2 μM, 37 °C, with NADPH, 25 min, read-out: % Remaining, Mean of 2.
Setting [15] is: human, liver microsomes, pH 7.4, human liver microsomes, 2 μM, 37 °C, with NADPH, 40 min, read-out: % Remaining, Mean of 2.
[16] abbreviates: human, liver microsomes, pH 7.4, human liver microsomes, 0.42 mg protein per ml, Table S3, * approximate due to high stability, read-out: Clint.
Setting [17] is: human, liver microsomes, pH 7.4, human liver microsomes, * approximate due to high stability, read-out: t1/2.
The mark [18] stands for this setting: pH 7.4, human liver microsomes, no NADPH cofactor, 40 min, ** instability partially or completely not determined by CYP450 activity, read-out: % Remaining without cofactor, Mean of 2.
The mark [19] stands for this setting: phosphate-buffered saline, Table S1, incubation 1, read-out: PBS solubility, pH 7.4, Incubation 1.
[20] abbreviates: phosphate-buffered saline, Table S1, incubation 2, read-out: PBS solubility, pH 7.4, Incubation 2.
The mark [21] stands for this setting: phosphate-buffered saline, experimental kinetic solubility in phosphate-buffered saline at pH 7.4, Fig. 3, read-out: Solubility.

The structures appear in SMILES notation. In brackets after ≈: the same amount, converted by molar mass. Read-outs that look alike come from different tables or passages of the source.

With `Cn1cc(C(=O)Nc2ccccc2-c2cc(F)c(F)c(F)c2)c(C(F)F)n1` [Fluxapyroxad, reference compound], the MIC in series [1] (setting [7]) and in series [1] (Fig. 4e) was 250 µg/mL (≈ 656 µM) throughout. Also, the inhibition (as a rule, the drop in the measured response relative to a control, in per cent) at 31 µg/mL in series [2] (at a concentration of 0.031 mg/mL, MIC not reached, read-out: Maximal inhibition of growth) is 38 ± 1.9%. The compound also showed a CIint, intrinsic clearance in series [3] (human, microsomes) of 28 µL/min/mg. The fraction remaining at 40 min, 2 µM in series [4] (human, microsomes, pH 7.4, % Remaining without cofactor, Mean of 2) stood at 79%; in series [4] (setting [8]), 63%. For the same compound, in series [4] (setting [8]), the share remaining at 25 min, 2 µM came out at 73%. In series [4] (human, microsomes, pH 7.4, Clint), this compound registered a microsomal CLint at 2 µM of 28 µL/min/mg. The same compound came in with a half-life at 2 µM in series [4] (human, microsomes, pH 7.4, t1/2) of 0.983 h. In series [4] (human, pH 7.4), the k el at 2 µM is 0.0002 s⁻¹. Besides, the “D (partition ratio), incubation 1” value in series [5] came out at 3.37E+03. The “D (partition ratio), incubation 2” value in series [5] is given as 2.99E+03. Also, the “D (partition ratio), incubation 3” value in series [5] was determined as 3.24E+03. Besides, the logD (as a rule, lipophilicity at a set pH, counting ionised and neutral species) at 1 h in series [5] (pH 7.4, LogD, pH 7.4 (mean)) is 3.51; in series [5] (setting [9]), 3.53; in series [5] (setting [10]), 3.48; in series [5] (setting [11]) it was 3.51; in series [5] (pH 7.4, logD (7.4)), 3.5. For the same compound, the solubility (in general, the dissolved amount per volume that the medium holds) at 2 h in series [6] (PBS solubility, pH 7.4, Incubation 1) was 24 µM (≈ 9.15 µg/mL); in series [6] (PBS solubility, pH 7.4, Incubation 2), 27 µM (≈ 10.3 µg/mL); in series [6] (Solubility), 25 µM (≈ 9.53 µg/mL).

Regarding `Cn1cc(C(=O)N[C@@H]2[C@H]3C[C@]2(c2cc(F)c(F)c(F)c2)CO3)c(C(F)F)n1` (relative stereo) [Compound 29], the MIC in series [1] (setting [7]) and in series [1] (Fig. 4e) was 250 µg/mL (≈ 645 µM) throughout. Further, the inhibition at 125 µg/mL in series [2] (at a concentration of 0.125 mg/mL, MIC not reached, read-out: Maximal inhibition of growth) stood at 35.7 ± 2.4%. The compound further had a CIint, intrinsic clearance in series [3] (human liver microsomes) of 23 µL/min/mg. The amount remaining at […], 2 µM in series [4] (setting [12]) came to 106%; in series [4] (setting [13]), 93%. Moreover, in series [4] (setting [14]), the amount remaining at 25 min, 2 µM was 83%. Besides, the fraction remaining at 40 min, 2 µM amounted to 72% in series [4] (setting [15]) and 89% in series [4] (setting [18]). Besides, in series [4] (setting [16]), the microsomal CLint at 2 µM was 23 µL/min/mg. In addition, the half-life at 2 µM in series [4] (setting [17]) stood at 1.22 h. Besides, the k el at 2 µM in series [4] (pH 7.4, human liver microsomes, elimination constant, * approximate due to high stability, read-out: kel (converted)) is 0.00015 s⁻¹. Moreover, in series [5], the “D (partition ratio), incubation 1” value amounted to 5.70E+02. In addition, in series [5], the “D (partition ratio), incubation 2” value is reported as 6.13E+02. Besides, the “D (partition ratio), incubation 3” value in series [5] came out at 5.77E+02. Further, the logD at 1 h was determined as 2.77 in series [5] (pH 7.4, LogD, pH 7.4 (mean)); 2.76 in series [5] (setting [9]); 2.79 in series [5] (setting [10]); 2.76 in series [5] (setting [11]); 2.8 in series [5] (pH 7.4, logD (7.4)). For the same compound, the solubility at 2 h was determined as 151 µM (≈ 58.5 µg/mL) in series [6] (setting [19]), 158 µM (≈ 61.2 µg/mL) in series [6] (setting [20]) and 155 µM (≈ 60 µg/mL) in series [6] (setting [21]).

`O=C(N[C@@H]1[C@H]2C[C@]1(c1ccc(Cl)cc1)CO2)c1cccnc1Cl` (relative stereo) [Compound 31]: the inhibition at 250 µg/mL in series [1] (read-out: Maximal inhibition of growth) was determined as 36.3 ± 1.9%. Moreover, the MIC (commonly the least concentration at which growth counts as inhibited) in series [2] (Fig. 4e) came to 250 µg/mL (≈ 716 µM); in series [2] (Table S6, lowest concentration giving 50% of optical density relative to control, 26 °C, 48 h) it was 250 µg/mL (≈ 716 µM). Moreover, the CIint, intrinsic clearance in series [3] (human liver microsomes) was 3 µL/min/mg. In addition, the share remaining at […], 2 µM in series [4] (setting [12]) worked out at 107%; in series [4] (setting [13]) it was 110%. Further, in series [4] (setting [14]), the amount remaining at 25 min, 2 µM amounted to 107%. In addition, the values for the fraction remaining at 40 min, 2 µM in series [4] (setting [15]) and in series [4] (setting [18]) were 108% and 85%, respectively. Besides, the microsomal CLint at 2 µM in series [4] (setting [16]) was ~3 µL/min/mg; in series [4] (human, liver microsomes, pH 7.4, human liver microsomes, Fig. 3, read-out: CIint, intrinsic clearance), 3 µL/min/mg. Also, the half-life at 2 µM in series [4] (setting [17]) is ~8.09 h. Also, in series [5], the “D (partition ratio), incubation 1” value is reported as 3.05E+03. The “D (partition ratio), incubation 2” value in series [5] amounted to 3.16E+03. In addition, in series [5], the “D (partition ratio), incubation 3” value turned out to be 3.13E+03. Besides, the logD at 1 h in series [5] (pH 7.4, LogD, pH 7.4 (mean)) amounted to 3.5; in series [5] (setting [9]), 3.48; in series [5] (setting [10]), 3.5; in series [5] (setting [11]), 3.5; in series [5] (pH 7.4, logD (7.4)) it was 2.7 ± 0.2. Besides, the solubility at 2 h worked out at 148 µM (≈ 51.7 µg/mL) in series [6] (setting [19]), 157 µM (≈ 54.8 µg/mL) in series [6] (setting [20]) and 152 µM (≈ 53.1 µg/mL) in series [6] (setting [21]).

These data come from paper PMC10396955, “2-Oxabicyclo[2.1.1]hexanes as saturated bioisosteres of the ortho-substituted phenyl ring” (Nature Chemistry, 2023).
